Measurements published in patent US8268848B2, “Cyclopropane compound” (Eisai R&D Management Co., Ltd., priority 2010, dated 2012).
pIC50: −log10 of the molar value. Like-named read-outs stand apart in the source and are kept apart here.

What was measured:
OX1 = molecular target: T1, OX1 (Homo sapiens, UniProt O43613); experiment: Measurement of orexin receptor-binding ability ([125I]-OX-A, cell membranes, OX1); parameters: expressed in transfected cells; host or cells: CHO cells (membrane preparation)
T1 sequence (O43613 1-425): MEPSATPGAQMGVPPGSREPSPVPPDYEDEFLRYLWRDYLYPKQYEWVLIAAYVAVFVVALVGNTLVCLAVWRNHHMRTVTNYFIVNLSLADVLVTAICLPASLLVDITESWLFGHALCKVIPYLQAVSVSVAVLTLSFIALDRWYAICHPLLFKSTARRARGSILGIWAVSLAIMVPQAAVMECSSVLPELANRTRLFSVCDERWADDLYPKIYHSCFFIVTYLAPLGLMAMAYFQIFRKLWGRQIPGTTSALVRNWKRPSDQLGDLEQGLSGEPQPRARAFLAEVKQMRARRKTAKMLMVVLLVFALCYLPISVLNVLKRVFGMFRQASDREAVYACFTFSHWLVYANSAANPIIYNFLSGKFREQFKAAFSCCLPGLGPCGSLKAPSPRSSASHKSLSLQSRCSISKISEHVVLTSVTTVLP
Protocol: (§1) 1. Measurement of Orexin Receptor-Binding Ability
(§2) The assay was carried out using a 96-well Wheat Germ Agglutinin Flash Plate (PerkinElmer). The volume in a single assay well was 100 ul, and the composition of the reaction solution was as follows:
(§3) 25 mM HEPES (pH 7.5), 1 mM CaCl2, 4.5 mM MgCl2, 0.5% BSA (bovine serum albumin), 0.1% sodium azide, 0.05% Tween-20, and 0.2% DMSO.
(§4) Cell membranes were prepared from recombinant CHO cells that expressed OX2 or OX1. The cell membranes were used in an amount of 5 μg protein/assay. […] Finally, the radioactivity of each well was measured using a scintillation counter (TopCount, PerkinElmer).

OX2 = molecular target: T2, OX2 (Homo sapiens, UniProt O43614); experiment: Measurement of orexin receptor-binding ability ([125I]-OX-A, cell membranes, OX2); parameters: expressed in transfected cells; host or cells: CHO cells (membrane preparation); conditions: membranes of recombinant CHO cells expressing OX2, 0.2 nM [125I]-OX-A; for IC50: OX2 (IC50) nM; for pIC50: read-out: OX2 (IC50)
T2 sequence (O43614 1-444): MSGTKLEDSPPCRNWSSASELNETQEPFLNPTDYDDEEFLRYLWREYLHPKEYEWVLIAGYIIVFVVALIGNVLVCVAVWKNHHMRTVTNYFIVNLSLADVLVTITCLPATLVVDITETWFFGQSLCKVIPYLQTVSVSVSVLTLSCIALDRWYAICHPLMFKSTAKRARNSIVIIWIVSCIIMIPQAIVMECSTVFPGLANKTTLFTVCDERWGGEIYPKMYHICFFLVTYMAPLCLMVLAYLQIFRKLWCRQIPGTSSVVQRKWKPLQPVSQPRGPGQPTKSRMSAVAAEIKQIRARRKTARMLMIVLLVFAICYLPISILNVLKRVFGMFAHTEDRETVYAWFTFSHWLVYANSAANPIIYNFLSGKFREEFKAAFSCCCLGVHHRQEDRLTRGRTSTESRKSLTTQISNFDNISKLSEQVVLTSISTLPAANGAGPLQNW
Protocol: as §1, §2, §3, §4

[1] = membranes of recombinant CHO cells expressing OX1, 0.2 nM [125I]-OX-A, read-out: OX1 (IC50)

Row | SMILES | pIC50 (OX1) | IC50 (OX2) [nM] | pIC50 (OX1; [1]) | pIC50 (OX2)
1 | COCc1nc(C)ncc1OC[C@@]1(c2cc(F)cc(OC)c2)C[C@H]1C(=O)Nc1cccc(F)c1 [Example 236, (1R,2S)-2-(3-fluoro-5-methoxyphenyl)-N-(3-fluorophenyl)-2-{[(4-methoxymethyl-2-methylpyrimidin-5-yl)oxy]methyl}cyclopropanecarboxamide] | 7.68 | 5 |  | 
2 | Cc1ncc(OC[C@@]2(c3ccccc3)C[C@H]2C(=O)Nc2cccc(CO)c2)c(C)n1 [Example 17] |  |  | 6.53 | 7.42
3 | COCc1nc(C)ncc1OC[C@@]1(c2cccc(F)c2)C[C@H]1C(=O)Nc1ccc(C#N)cn1 [Example 200] | 7.17 | 12 |  | 
4 | Cc1ncc(OCC2(c3ccccc3C)CC2C(=O)Nc2ccc(C#N)cn2)c(C)n1 (stereo not drawn) [Example 178] | 6.11 |  |  | 
5 | COc1ccccc1C1(COc2cnc(C)nc2C)CC1C(=O)Nc1cccnc1 (stereo not drawn) [Example 126] |  |  | 7.00 | 6.97
6 | COc1ncc(OC[C@@]2(c3ccccc3)C[C@H]2C(=O)Nc2ccc(C#N)cn2)c(C)n1 [Example 127, (1R,2S)-N-(5-cyanopyridin-2-yl)-2-{[(2-methoxy-4-methylpyrimidin-5-yl)oxy]methyl}-2-phenylcyclopropanecarboxamide] |  |  | 5.96 | 7.10
7 | Cc1ncc(OC[C@@]2(c3ccccc3)C[C@H]2C(=O)Nc2cnc(Br)c(C)c2)c(C)n1 [Example 58] |  |  | 5.71 | 7.05
8 | COc1cncc(NC(=O)[C@@H]2C[C@@]2(COc2cnc(C)nc2C)c2cccc(F)c2)c1 [Example 89] | 6.79 | 14 |  | 
9 | COCc1nc(C)ncc1OC[C@@]1(c2ccc(F)c(F)c2)C[C@H]1C(=O)Nc1ccccn1 [Example 211, (1R,2S)-2-(3,4-difluorophenyl)-2-{[(4-methoxymethyl-2-methylpyrimidin-5-yl)oxy]methyl}-N-(pyridin-2-yl)cyclopropanecarboxamide] | 7.70 | 4 |  | 
10 | Cc1ncc(OCC2(c3cccc(Cl)c3)CC2C(=O)Nc2ccc(F)cn2)c(C)n1 (stereo not drawn) [Example 154] | 8.22 | 7 |  | 
11 | Cc1ncc(OC[C@@]2(c3ccc(Br)cc3)C[C@H]2C(=O)Nc2ccc(Cl)cn2)c(C)n1 [Example 273, (1R,2S)-2-(4-bromophenyl)-N-(5-chloropyridin-2-yl)-2-{[(2,4-dimethylpyrimidin-5-yl)oxy]methyl}cyclopropanecarboxamide] | 7.16 | 10 |  | 
12 | COc1ccccc1C1(COc2cnc(C)nc2C)CC1C(=O)Nc1ccc(F)cn1 (stereo not drawn) [Example 125] | 5.98 | 84 |  | 
13 | Cc1ncc(OC[C@@]2(c3ccccc3)C[C@H]2C(=O)Nc2ccc(F)cc2)c(C)n1 [Example 77, (1R,2S)-2-{[(2,4-dimethylpyrimidin-5-yl)oxy]methyl}-N-(4-fluorophenyl)-2-phenylcyclopropanecarboxamide] |  |  | 7.39 | 7.62
14 | COc1ccnc(NC(=O)[C@@H]2C[C@@]2(COc2cnc(C)nc2C)c2ccccc2)c1 [Example 50] | 7.92 | 13 |  | 
15 | COc1cc(NC(=O)[C@@H]2C[C@@]2(COc2cnc(C)nc2C)c2ccc(F)cc2)ncc1F [Example 104] |  |  | 8.40 | 8.37
16 | Cc1ncc(OC[C@@]2(c3cccc(F)c3)C[C@H]2C(=O)Nc2ncc(F)cc2O)c(C)n1 [Example 319, (1R,2S)-2-{{[(2,4-dimethylpyrimidin-5-yl)oxy]methyl}}-N-(5-fluoro-3-hydroxypyridin-2-yl)-2-(3-fluorophenyl)cyclopropanecarboxamide] | < 6.70 | 128 |  | 
17 | COc1cccc([C@]2(COc3cnc(C)nc3C)C[C@H]2C(=O)Nc2ccc(F)c(F)c2)c1 [Example 190, (1R,2S)-N-(3,4-difluorophenyl)-2-{[(2,4-dimethylpyrimidin-5-yl)oxy]methyl}-2-(3-methoxyphenyl)cyclopropanecarboxamide] |  |  | 7.96 | 8.30
18 | Cc1ncc(OCC2(c3ccccc3C)CC2C(=O)Nc2cccnc2)c(C)n1 (stereo not drawn) [Example 180] |  |  | 6.64 | 7.48
19 | Cc1ncc(OCC2(c3cccc(Cl)c3)CC2C(=O)Nc2ccc(Cl)cn2)c(C)n1 (stereo not drawn) [Example 155] | 8.00 | 6 |  | 

Row | SMILES | pIC50 (OX1) | IC50 (OX2) [nM] | pIC50 (OX1; [1]) | pIC50 (OX2)
20 | Cc1ncc(OC[C@@]2(c3ccccc3)C[C@H]2C(=O)Nc2ccnc(Cl)c2)c(C)n1 [Example 33] |  |  | 6.68 | 7.82
21 | Cc1nc(C)[n+]([O-])cc1OC[C@@]1(c2ccccc2)C[C@H]1C(=O)Nc1ccc(F)nc1 [Example 81, (1R,2S)-2-[(2,4-dimethyl-1-oxopyrimidin-5-yl)oxymethyl]-N-(6-fluoropyridin-3-yl)-2-phenylcyclopropanecarboxamide] |  |  | 5.59 | 7.20
22 | Cc1ncc(OC[C@@]2(c3cccc(F)c3)C[C@H]2C(=O)Nc2ccccn2)c(C)n1 [Example 87] | 7.37 | 10 |  | 
23 | Cc1ncc(OC[C@@]2(c3ccccc3)C[C@H]2C(=O)Nc2cnc(F)c(C)c2)c(C)n1 [Example 57] |  |  | 6.27 | 7.46
24 | Cc1ccc(NC(=O)[C@@H]2C[C@@]2(COc2cnc(C)nc2C)c2cccc(F)c2)nc1 [Example 278] | 7.12 | 10 |  | 
25 | Cc1ncc(OC[C@@]2(c3cccc(F)c3)C[C@H]2c2nc3ncccc3c(=O)[nH]2)c(C)n1 [Example 312] |  |  | 6.87 | 7.21
26 | Cc1ncc(OC[C@@]2(c3cccc(F)c3)C[C@H]2C(=O)Nc2ccnc(F)c2)c(C)n1 [Example 97] | 6.98 | 21 |  | 
27 | Cc1cccc(C2(COc3cnc(C)nc3C)CC2C(=O)Nc2cccnc2)c1 (stereo not drawn) [Example 177] |  |  | 6.48 | 7.08
28 | Cc1ncc(OC[C@@]2(c3ccccc3)C[C@H]2C(=O)Nc2cccc(S(C)(=O)=O)c2)c(C)n1 [Example 29] |  |  | 6.34 | 7.26
29 | Cc1cccc(C2(COc3cnc(C)nc3C)CC2C(=O)Nc2ccc(F)cn2)c1 (stereo not drawn) [Example 176] | 6.86 | 26 |  | 
30 | COCCc1nc(C)ncc1OC[C@@]1(c2cccc(F)c2)C[C@H]1C(=O)Nc1cc(C)c(F)cn1 [Example 229, (1R,2S)-N-(5-fluoro-4-methylpyridin-2-yl)-2-(3-fluorophenyl)-2-{[(4-methoxyethyl-2-methylpyrimidin-5-yl)oxy]methyl}cyclopropanecarboxamide] | 7.72 | 4 |  | 
31 | COCc1nc(C)ncc1OC[C@@]1(c2ccc(F)c(F)c2)C[C@H]1C(=O)Nc1ccc(F)c(F)c1 [Example 214, (1R,2S)-N,2-bis(3,4-difluorophenyl)-2-{[(4-methoxymethyl-2-methylpyrimidin-5-yl)oxy]methyl}cyclopropanecarboxamide] |  |  |  | 8.15
32 | COCc1nc(C)ncc1OCC1(c2cccc(Cl)c2)CC1C(=O)Nc1ccc(F)cc1 (stereo not drawn) [Example 224] |  |  |  | 7.57
33 | COCc1nc(C)ncc1OC[C@@]1(c2ccc(F)c(OC)c2)C[C@H]1C(=O)Nc1cc(C)c(F)cn1 [Example 239, (1R,2S)-2-(4-fluoro-3-methoxyphenyl)-N-(5-fluoro-4-methylpyridin-2-yl)-2-{[(4-methoxymethyl-2-methylpyrimidin-5-yl)oxy]methyl}cyclopropanecarboxamide] |  |  |  | 8.15
34 | CCc1nc(C)ncc1OC[C@@]1(c2ccc(F)cc2)C[C@H]1C(=O)Nc1cccc(F)c1 [Example 249] |  |  |  | 7.77
35 | Cc1ncc(OC[C@@]2(c3ccc(F)cc3)C[C@H]2C(=O)Nc2ccc(F)c(F)c2)c(C)n1 [Example 106] |  |  |  | 7.72
36 | COCc1nc(C)ncc1OC[C@@]1(c2ccccc2)C[C@H]1C(=O)Nc1cc(C)c(F)cn1 [Example 145, (1R,2S)-N-(5-fluoro-4-methylpyridin-2-yl)-2-{[(4-methoxymethyl-2-methylpyrimidin-5-yl)oxy]methyl}-2-phenylcyclopropanecarboxamide] |  |  |  | 8.05
37 | COCc1nc(C)ncc1OCC1(c2cccc(Cl)c2)CC1C(=O)Nc1ccc(F)cn1 (stereo not drawn) [Example 222] |  | 68 |  | 
